The source of these data is patent US5962516A, “Immunosuppressive compounds and methods” (priority 1999, dated 1999).

Structures are written as SMILES. Where a name gives a salt, the structure may show the parent alone. Read-outs that look alike come from different tables or passages of the source.

Assay [1] concerns IL-1β action on murine thymocytes. Kind of assay: Inhibition of IL-1 action (IL-1 assay): suppression of IL-1β + PHA stimulated murine thymocyte proliferation. The class given is cell-based, mouse (C3H/HeN). As for the experimental part: The ability of the above compounds to suppress the cell-proliferative effect of IL-1β in vitro (O'Gara, 1990) was examined as described in Example 11. Mouse thymocytes in culture were stimulated with IL-1β in the presence of phytohemagglutinin (PHA) and increasing concentrations of triptolide (control) and triptolide derivatives. The cells were cultured for 72 hours, and during the last 18 hours, incubated with tritiated thymidine. DNA synthesis was assessed by measuring incorporation of radiolabeled thymidine. The results expressed in terms of IC50 (concentration effective to cause 50% suppression of proliferation) are shown in Table 1.
C3H/HeN mouse thymocytes were prepared and the action of IL-1 together with PHA, which stimulate proliferation of thymocyte, was measured using standard techniques (O'Gara, 1990; Mishell, 1980). Three- to six-week old C3H/HeN male mice (Simonson Laboratory, Gilroy, Calif.) were sacrificed by CO2 inhalation. Thymi were removed, separated from adherent non-thymic tissue, homogenized in Hank's balanced salt solution (HBSS, Gibco) using a glass homogenizer, and centrifuged at 200×g for 10 minutes at 15° C. Following an additional wash in HBSS, the thymocytes were resuspended in RPMI 1640 medium containing 50 uM 2-mercaptoethanol, 2 mM glutamine, 1 mM sodium pyruvate, non-essential amino acids 100 U/ml penicillin, 100 μg/ml streptomycin, and 10% heat-inactivated fetal bovine serum.
Cells were cultured in round-bottom 96 well microtiter tissue culture plates, 6×10^5 cells per well, in a volume of 100 μl. Recombinant human IL-1β (R & D Systems #201-LB) together with Phytohemagglutinin P (PHA, Pharmacia) were added to the cells in volume of 25 μl per well to achieve a final concentration of 0.08 ng/ml and 10 μg/ml, respectively. Samples were dissolved in DMSO (10 mg/ml), then diluted in culture medium. Twenty five microliters of the test sample was added to each well to achieve the final compound concentrations for each experiment. Cells with PHA together with IL-1 served as controls. The total volume for each well was 150 μl.
Plates were incubated at 37° C. in a 5% CO2 incubator for 72 hours. Fifty microliters of culture medium containing 0.5 μCi (^3 H)-thymidine (Amersham, 49 Ci/mmol) was added to each well prior to the last 18 hours of incubation. Cells were then harvested and counted. The results were reported as counts per minute (cpm) per 6×10^5 cells.
The following formula was used to calculate the percent of suppression of IL-1 activity, and IC50 (concentration of sample yielding 50% suppression of proliferation) was used to indicate the suppressive activity of the sample.
% suppression of IL-1 activity=(1-sample cpm/(IL-1+PHA control

Assay [2] deals with mixed lymphocyte reaction (spleen cells from female C57BL/6 mice, stimulated with Balb/C spleen cells). The assay is described as follows: Mixed lymphocyte reaction (MLR) assay. The class given is cell-based, mouse. As to conditions: 50% suppression of proliferation; for IC50: read-out: MLR Assay IC50. On the procedure:
Inhibition of cell proliferation by the subject compounds was assayed in the mixed lymphocyte reaction (MLR) (Bradley, 1980; Mishell, 1980). Spleen cells from female C57BL/6 mice, the "responder" cells, were prepared and co-cultured alone or in the presence of varying concentrations of the test compounds, with irradiated spleen cells prepared from female Balb/C mice, the "stimulator" cells. Prior irradiation of the stimulator cells rendered them unable to proliferate. A sample of the responder cells was also irradiated for use as a control. The non-irradiated responder cells proliferate in the presence of the allogenic stimulator cells. After a 78-hour incubation, tritiated thymidine was added to the mixed cell cultures, and incorporation of the labeled nucleotide into DNA was measured as an index of cell proliferation.
In this study, the responder cells (R) were spleen cells from female C57BL16 mice, and the stimulator cells (S) were spleen cells from female Balb/C mice 6 to 8 weeks of age (Jackson, Bar Harbor, Me.). The spleens were aseptically removed from the mice and placed into 10 ml of cold HBSS in a sterile petri dish. The spleen was cut in half and gently pressed between the frosted ends of 2 sterile microslides. The cell suspension was then filtered through sterile nylon mesh (Nytex, Tetco #HD-3-85) into a 15 ml conical polypropylene centrifuge tube and centrifuged at 200×g for 10 minutes in a Beckman GPR tabletop centrifuge (GH-3.7 Rotor). Following an additional wash in HBSS, the spleen cells were resuspended in RPMI 1640 medium (Gibco) containing 50 uM 2-mercaptoethanol, 2 mM glutamine, 100 U/ml penicillin, 100 μg/ml streptomycin and 10% heat-inactivated fetal bovine serum.
The stimulator cells (S) and part of the responder cells (R) were diluted at 10×10^6 cells/ml and irradiated at 20 cGy with a Cesium Irradiator (Department of Radiation Oncology, Stanford University, California) to inhibit proliferation. The irradiated cells were washed once to remove any toxic free radicals and their products resulting from irradiation. The responder cells (R), irradiated stimulator cells (Sx) and irradiated responder cell (Rx) were all diluted to 4×10^6 cells/ml.
In the assay, 4×10^5 cells of R were cocultured with 4×10^5 cells of Sx in 200 μl of medium in round bottom 96 well tissue culture plates. Fifty micro-liters of test samples at various concentrations were added to the cells. The wells receiving no test samples would get the maximum proliferation. Several controls were used in the assay. The irradiated responder cells (Rx) were also added to the responder cells with and without the test samples. Rx or Sx alone were checked to make sure no proliferation occurred after irradiation. The spontaneous proliferation of R was also measured.
The culture plates were incubated at 37° C. in a 5% CO2 incubator for four days. The cells were labelled with 1 μCi of (^3 H)-thymidine (Amersham, 49 Ci/mmol) in 20 μl of medium for the last 18 hours. Cells were then harvested and counted. The results were reported as counts per minute (cpm) per well. Percent of suppression and IC50 (concentration of sample producing 50% suppression of proliferation) were used to indicate the suppressive activity of the sample. Sample cpm was calculated as (R+Sx+sample)cpm-(R+Rx+sample)cpm; control cpm was calculated as (R+Sx)cpm-(R+Rx)cpm. Percent suppression of MLR activity was calculated as (1-sample cpm/control cpm)×100. IC50 was determined from percent suppression to indicate the suppressive activity of the sample.

Where [3] appears, read: 50% suppression of proliferation; 72 h culture.
Where [4] appears, read: read-out: IL-1 Assay IC50; 50% suppression of proliferation; 72 h culture.

Turning to `CC(C)C12OC1C1OC13C1(C)CCC4=C(COC4=O)C1CC1OC13C2OC(=O)CCC(=O)O` (stereo not drawn) [YM-273, Triptolide Succinate Tris Salt], the “IL-1 Assay IC50” value in assay [1] (setting [3]) was 0.462 µg/mL. Further, the 50% inhibitory concentration (IC50) in assay [1] (setting [4]) amounted to 800 nM. Moreover, in assay [2], the “MLR Assay IC50” value stood at 0.18 µg/mL and the IC50 was 310 nM.

In the case of `CC(C)C12OC1C1OC13C1(C)CCC4=C(COC4=O)C1CC1OC13C2OC(=O)CCC(=O)O` (stereo not drawn) [YM-262, Triptolide Succinate], the “IL-1 Assay IC50” value in assay [1] (setting [3]) was found to be 0.181 µg/mL. Further, the IC50 in assay [1] (setting [4]) is 393 nM; in assay [2], 187 nM. In addition, in assay [2], the “MLR Assay IC50” value is 0.086 µg/mL.

Turning to `CC(C)[C@]12O[C@H]1[C@@H]1O[C@]13[C@]1(O[C@H]1C[C@H]1C4=C(CC[C@@]13C)C(=O)OC4)[C@@H]2O` [Triptolide, triptolide, reference compound], in assay [1], the “inhibition of IL-1β action in words” value was “potent inhibitor of IL-1β action”. The IC50 in assay [1] (50% suppression of proliferation; 72 h culture; read-out: IL-1 Assay IC50) is roughly 5 nM; in assay [2] (Mus musculus, Lymphocyte), 0.0009 µg/mL.

For the compound `CC(C)C12OC1C1OC13C1(C)CCC4=C(COC4=O)C1CC1OC13C2OC(=O)CCC(=O)O` (stereo not drawn) [YM-274, Triptolide Succinate Sodium Salt], the “IL-1 Assay IC50” value in assay [1] (50% suppression of proliferation; 72 h culture; Succinate Sodium Salt) was found to be 0.181 µg/mL. The IC50 in assay [1] (read-out: IL-1 Assay IC50; 50% suppression of proliferation; 72 h culture; Succinate Sodium Salt) was determined as 376 nM. For the same compound, in assay [2] (Succinate Sodium Salt), the “MLR Assay IC50” value was 0.09 µg/mL and the half-maximal inhibitory concentration (IC50) was 187 nM.

Usually IC50 stands for the concentration needed to halve the response being measured.
